Experimental findings from paper PMC5408701, “Isomaltooligosaccharide-binding structure of Paenibacillus sp. 598K cycloisomaltooligosaccharide glucanotransferase” (Bioscience Reports, 2017) are described below.

The target in the experiment is T1, PsCITase (core domain) (Paenibacillus sp. 598K, UniProt G9MBW2).
T1 construct: gene cit; core domain 41-739 (N-terminal 40 and C-terminal 235 residues, incl. CBM35-2, removed), N-terminal pET15b His tag (numbered Met21-Met40), E. coli BL21(DE3); full length 972 residues
T1 sequence (G9MBW2 entry or part of it): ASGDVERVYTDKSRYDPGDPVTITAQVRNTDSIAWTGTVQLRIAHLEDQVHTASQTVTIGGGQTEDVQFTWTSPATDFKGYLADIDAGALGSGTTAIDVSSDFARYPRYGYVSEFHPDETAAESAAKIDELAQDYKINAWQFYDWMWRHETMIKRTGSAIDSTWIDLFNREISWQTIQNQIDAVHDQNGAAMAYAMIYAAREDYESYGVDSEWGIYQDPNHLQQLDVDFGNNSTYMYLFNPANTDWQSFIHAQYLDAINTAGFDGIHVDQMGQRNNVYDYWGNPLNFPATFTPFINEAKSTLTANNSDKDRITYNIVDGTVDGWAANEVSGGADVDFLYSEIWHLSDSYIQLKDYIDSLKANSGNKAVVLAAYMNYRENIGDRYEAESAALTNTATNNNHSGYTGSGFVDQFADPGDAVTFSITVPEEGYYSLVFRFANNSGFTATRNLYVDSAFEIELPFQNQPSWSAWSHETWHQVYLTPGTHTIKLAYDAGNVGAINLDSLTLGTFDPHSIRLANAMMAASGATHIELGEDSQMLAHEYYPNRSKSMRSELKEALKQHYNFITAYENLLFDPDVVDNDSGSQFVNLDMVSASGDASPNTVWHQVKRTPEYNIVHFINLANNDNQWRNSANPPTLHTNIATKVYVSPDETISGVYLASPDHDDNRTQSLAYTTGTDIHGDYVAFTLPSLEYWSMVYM
In words: X-ray crystallography, crystal soaked with […] CI-7, […] A. Type of experiment: binding.

Consider `O[C@@H]1[C@@H](O)[C@H]2OC[C@H]3O[C@H](OC[C@H]4O[C@H](OC[C@H]5O[C@H](OC[C@H]6O[C@H](OC[C@H]7O[C@H](OC[C@H]8O[C@H](OC[C@@H](O2)[C@H]1O)[C@H](O)[C@@H](O)[C@@H]8O)[C@H](O)[C@@H](O)[C@@H]7O)[C@H](O)[C@@H](O)[C@@H]6O)[C@H](O)[C@@H](O)[C@@H]5O)[C@H](O)[C@@H](O)[C@@H]4O)[C@H](O)[C@@H](O)[C@@H]3O` [CI-7, cycloisomaltoheptaose], for which the “X-ray crystallography, crystal soaked with 5% CI-7, 2.60 A” value (variable loop (canonical) site of PsCBM35-1, Trp507, on crystallographic two-fold axis, averaged density, soaked CI-7 is hydrolysed at the catalytic site) is “The bound sugar appeared to be soaked CI-7 with the cyclic sugar chain structure”.
As to `OC[C@H]1O[C@H](OC[C@H]2O[C@H](OC[C@H]3O[C@H](OC[C@H]4O[C@H](OC[C@H]5O[C@H](OC[C@H]6O[C@H](OC[C@H]7OC(O)[C@H](O)[C@@H](O)[C@@H]7O)[C@H](O)[C@@H](O)[C@@H]6O)[C@H](O)[C@@H](O)[C@@H]5O)[C@H](O)[C@@H](O)[C@@H]4O)[C@H](O)[C@@H](O)[C@@H]3O)[C@H](O)[C@@H](O)[C@@H]2O)[C@H](O)[C@@H](O)[C@@H]1O` (some centres unmarked) [IG-7, isomaltoheptaose], the “X-ray crystallography, crystal soaked with 5% CI-7, 2.60 A” value (catalytic cleft, subsites -7 to -1, hydrolysis product of soaked CI-7, Glc-1 density ambiguous) was “the bound CI-7 was observed as the cleaved linear form like isomaltoheptaose (IG-7)”.
